Test results taken from ChEMBL document CHEMBL1932914, “A new class of non-thiazolidinedione, non-carboxylic-acid-based highly selective peroxisome proliferator-activated receptor (PPAR) γ agonists: design and synthesis of benzylpyrazole acylsulfonamides” (Bioorg Med Chem, 2012).
Calls of active or inactive are those of the source. The rule behind the calls is not given here.

How the values were obtained:
[1] = molecular target: T1, Peroxisome proliferator-activated receptor gamma (Homo sapiens, UniProt P37231); assay: Agonist activity at full length human PPARgamma1 transfected in […] cells co expressing RXRalpha and PPRE after 1 day by luciferase reporter gene transactivation assay; type: functional, cell-based, CHO-K1
T1 sequence (P37231 whole entry): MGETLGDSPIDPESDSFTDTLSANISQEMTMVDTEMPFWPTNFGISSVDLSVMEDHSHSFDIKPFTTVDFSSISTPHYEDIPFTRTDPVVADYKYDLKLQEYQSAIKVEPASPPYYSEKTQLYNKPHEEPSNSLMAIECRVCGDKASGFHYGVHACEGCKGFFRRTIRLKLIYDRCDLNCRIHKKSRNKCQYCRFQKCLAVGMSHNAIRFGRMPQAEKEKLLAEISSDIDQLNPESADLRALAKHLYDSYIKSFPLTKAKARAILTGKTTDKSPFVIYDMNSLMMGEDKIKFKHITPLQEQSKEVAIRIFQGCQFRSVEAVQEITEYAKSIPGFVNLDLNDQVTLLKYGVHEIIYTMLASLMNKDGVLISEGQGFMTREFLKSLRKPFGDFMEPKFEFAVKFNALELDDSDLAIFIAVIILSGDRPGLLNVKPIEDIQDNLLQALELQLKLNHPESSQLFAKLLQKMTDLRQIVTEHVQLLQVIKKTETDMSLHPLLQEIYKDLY

[2] = Clearance in human liver microsomes at 1 umol/L after 20 mins by HPLC analysis; type: ADME, Microsome; conditions: read-out: CLH
[3] = molecular target: T2, Peroxisome proliferator-activated receptor alpha (Homo sapiens, UniProt Q07869); assay: Agonist activity at human PPARalpha expressed in COS-1 cells after 1 day by luciferase reporter gene transactivation assay; type: functional, cell-based
T2 sequence (Q07869 whole entry): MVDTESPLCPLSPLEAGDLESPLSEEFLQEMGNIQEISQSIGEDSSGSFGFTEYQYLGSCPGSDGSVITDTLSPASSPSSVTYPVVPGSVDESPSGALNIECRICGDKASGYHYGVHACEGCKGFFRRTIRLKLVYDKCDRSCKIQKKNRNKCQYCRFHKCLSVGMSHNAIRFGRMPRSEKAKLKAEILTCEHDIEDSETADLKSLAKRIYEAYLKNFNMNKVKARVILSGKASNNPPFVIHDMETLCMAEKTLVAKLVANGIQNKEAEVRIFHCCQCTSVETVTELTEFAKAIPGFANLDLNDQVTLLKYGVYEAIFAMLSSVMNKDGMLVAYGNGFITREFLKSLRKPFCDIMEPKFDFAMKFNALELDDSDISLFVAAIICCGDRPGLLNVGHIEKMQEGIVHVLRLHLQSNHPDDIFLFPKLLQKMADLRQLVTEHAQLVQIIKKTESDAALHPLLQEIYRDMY

[4] = molecular target: T3, Peroxisome proliferator-activated receptor delta (Homo sapiens, UniProt Q03181); assay: Agonist activity at human PPARdelta expressed in COS-1 cells after 2 days by luciferase reporter gene transactivation assay; type: functional, cell-based
T3 sequence (Q03181 whole entry): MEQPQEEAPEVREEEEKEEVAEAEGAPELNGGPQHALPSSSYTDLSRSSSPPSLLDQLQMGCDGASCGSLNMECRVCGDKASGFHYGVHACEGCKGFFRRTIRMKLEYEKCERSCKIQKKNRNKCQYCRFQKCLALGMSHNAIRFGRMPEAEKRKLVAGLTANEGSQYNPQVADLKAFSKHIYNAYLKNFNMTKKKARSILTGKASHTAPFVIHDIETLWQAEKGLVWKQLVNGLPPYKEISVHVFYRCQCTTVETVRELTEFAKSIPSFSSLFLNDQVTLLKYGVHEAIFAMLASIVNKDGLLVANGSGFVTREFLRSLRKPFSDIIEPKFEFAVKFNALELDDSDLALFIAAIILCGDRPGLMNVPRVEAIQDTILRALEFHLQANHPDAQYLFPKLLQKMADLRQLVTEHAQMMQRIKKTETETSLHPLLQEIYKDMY

Homo sapiens = organism: Homo sapiens; assay: Selectivity ratio of EC50 for human PPARalpha to EC50 for human PPARgamma1
[5] = molecular target: PPAR delta/gamma (Homo sapiens) (UniProt P37231+Q03181); assay: Selectivity ratio of EC50 for human PPARdelta to EC50 for human PPARgamma1
[6] = molecular target: T4, Peroxisome proliferator-activated receptor alpha (Homo sapiens) (UniProt Q07869); assay: Agonist activity at human PPARalpha expressed in COS-1 cells at 10 uM after 1 day by luciferase reporter gene transactivation assay; type: functional, cell-based
T4 sequence (whole entry): T2 sequence (Q07869 whole entry)

[7] = Clearance in rat liver microsomes at 1 umol/L after 20 mins by HPLC analysis; type: ADME, Microsome; conditions: read-out: CLH
Rattus norvegicus [8] = assay: Antidiabetic activity in po dosed fatty Wister rat assessed as reduction of plasma glucose level administered once daily for 7 days; type: functional; conditions: for ED25: 168 h
[9] = molecular target: T4, Peroxisome proliferator-activated receptor alpha (Homo sapiens); assay: Binding affinity to PPARalpha at 10 uM by competitive binding assay
Rattus norvegicus [10] = assay: Antidiabetic activity in po dosed fatty Wister rat assessed as reduction of triglyceride level administered once daily for 7 days; type: functional; conditions: for ED25: 168 h
[11] = molecular target: T1, Peroxisome proliferator-activated receptor gamma; assay: Displacement of [3H]-AD-5061 from human GST-tagged PPARgamma
[12] = molecular target: T5, Peroxisome proliferator-activated receptor delta (Homo sapiens) (UniProt Q03181); assay: Binding affinity to PPARdelta at 10 uM by competitive binding assay
T5 sequence (whole entry): T3 sequence (Q03181 whole entry)

Row | EC50 ([1]; read-out: EC50) [nM] | microsomal CLint at 1 µM [2] [µL/min/mg] | EC50 [3] [nM] | EC50 [4] [nM] | Ratio EC50 (Homo sapiens) | Ratio EC50 [5] | Structure (SMILES) | also measured
1 | 260 | 107 | – | – | – | – | CC(C)Oc1cc(CCC(=O)NS(=O)(=O)Cc2ccccc2)n(Cc2ccc(Cl)cc2Cl)n1 | –
2 | > 10000 | – | – | – | – | – | CCCCCS(=O)(=O)NC(=O)Cc1cc(OCCCC)nn1Cc1ccc(Cl)cc1Cl | –
3 | 150 | – | > 10000 | > 10000 | – | – | CC(C)Oc1cc(CCC(=O)NS(=O)(=O)C2CCCCC2)n(Cc2ccc(Cl)cc2Cl)n1 | –
4 | 31 | 144 | > 10000 | > 10000 | – | – | CCCCCS(=O)(=O)NC(=O)CCc1cc(OCCOC)nn1Cc1ccc(Cl)cc1Cl | –
5 | 500 | – | – | – | – | – | CC(C)Oc1cc(CCC(=O)O)n(Cc2ccc(Cl)cc2Cl)n1 | –
6 | 13 | 124 | > 10000 | > 10000 | > 500 | > 500 | CCCCCS(=O)(=O)NC(=O)CCc1cc(C(C)C)nn1Cc1ccc(Cl)cc1Cl | –
7 | – | 136 | > 10000 | > 10000 | > 500 | > 500 | CCCCCS(=O)(=O)NC(=O)CCc1cc(C(C)C)nn1Cc1ccc(C(F)(F)F)cc1Cl | –
8 | 120 | 224 | > 10000 | > 10000 | – | – | CCCCCS(=O)(=O)NC(=O)CCc1cc(OCc2ccccn2)nn1Cc1ccc(Cl)cc1Cl | –
9 | 450 | – | – | – | – | – | CC(C)Oc1cc(CCC(=O)NS(C)(=O)=O)n(Cc2ccc(Cl)cc2Cl)n1 | –
10 | 110 | – | > 10000 | > 10000 | – | – | CC(C)Oc1cc(CCC(=O)NS(=O)(=O)c2ccccc2)n(Cc2ccc(Cl)cc2Cl)n1 | –
11 | 8.2 | 99 | > 10000 | > 10000 | > 500 | > 500 | CCCCCS(=O)(=O)NC(=O)/C=C/c1cc(C(C)C)nn1Cc1ccc(Cl)cc1Cl | –
12 | 9 | 34 | > 10000 | > 10000 | > 500 | > 500 | COCCOc1cc(/C=C/C(=O)NS(=O)(=O)CCC(C)C)n(Cc2ccc(C(F)(F)F)cc2Cl)n1 | Activity [6]: 47%
13 | 67 | – | – | – | – | – | CCCCCS(=O)(=O)NC(=O)CCCc1cc(OCCCC)nn1Cc1ccc(Cl)cc1Cl | –
14 | 21 | – | > 10000 | > 10000 | – | – | CCCCCCS(=O)(=O)NC(=O)CCc1cc(OC(C)C)nn1Cc1ccc(Cl)cc1Cl | –
15 | – | 29 | > 10000 | > 10000 | > 500 | > 500 | CCCCCS(=O)(=O)NC(=O)/C=C/c1cc(OC(C)C)nn1Cc1ccc(Cl)cc1Cl | –
16 | 13 | 78 | > 10000 | > 10000 | > 500 | > 500 | CCCCCS(=O)(=O)NC(=O)CCc1cc(C2CC2)nn1Cc1ccc(C(F)(F)F)cc1Cl | –
17 | 14 | 100 | > 10000 | > 10000 | – | – | CCCCCS(=O)(=O)NC(=O)CCc1cc(OCc2ccccc2)nn1Cc1ccc(Cl)cc1Cl | –
18 | – | – | > 10000 | > 10000 | – | – | CCCCCS(=O)(=O)NC(=O)CCc1cc(OCCCC)nn1Cc1ccc(Cl)cc1Cl | –
19 | 40 | 165 | > 10000 | > 10000 | – | – | CCCCS(=O)(=O)NC(=O)CCc1cc(OC(C)C)nn1Cc1ccc(Cl)cc1Cl | –
20 | – | 26 | > 10000 | > 10000 | > 500 | > 500 | CCCCCS(=O)(=O)NC(=O)/C=C/c1cc(OC(C)C)nn1Cc1ccc(C(F)(F)F)cc1Cl | microsomal CLint at 1 µM [7]: 33 µL/min/mg; Activity (Rattus norvegicus [8]): Dose-dependent effect; ED25 (Rattus norvegicus [8]): 0.12 mg/kg; Activity [9]: inactive; Activity (Rattus norvegicus [10]): Dose-dependent effect; ED25 (Rattus norvegicus [10]): 0.04 mg/kg; IC50 [11]: 23 nM; Activity [12]: inactive
21 | 160 | – | – | – | – | – | CCCS(=O)(=O)NC(=O)CCc1cc(OC(C)C)nn1Cc1ccc(Cl)cc1Cl | –
22 | – | 192 | – | – | > 500 | > 500 | CCCCCS(=O)(=O)NC(=O)CCc1cc(OC(C)C)nn1Cc1ccc(Cl)cc1Cl | microsomal CLint at 1 µM [7]: 128 µL/min/mg; Activity (Rattus norvegicus [8]): inactive
23 | 11 | 111 | > 10000 | > 10000 | – | – | CCCCCS(=O)(=O)NC(=O)CCc1cc(-c2ccccc2)nn1Cc1ccc(Cl)cc1Cl | –
24 | 17 | – | > 10000 | > 10000 | – | – | CC(C)CCS(=O)(=O)NC(=O)CCc1cc(OC(C)C)nn1Cc1ccc(Cl)cc1Cl | –
25 | – | – | – | – | – | – | CCCCCS(=O)(=O)NC(=O)c1cc(OCCCC)nn1Cc1ccc(Cl)cc1Cl | EC50 ([1]; cho-k1): Not Active
26 | – | 32 | > 10000 | > 10000 | > 500 | > 500 | CC(C)CCS(=O)(=O)NC(=O)/C=C/c1cc(OC(C)C)nn1Cc1ccc(C(F)(F)F)cc1Cl | microsomal CLint at 1 µM [7]: 51 µL/min/mg; Activity (Rattus norvegicus [8]): Dose-dependent effect; ED25 (Rattus norvegicus [8]): 0.21 mg/kg; Activity [9]: inactive; Activity (Rattus norvegicus [10]): Dose-dependent effect; ED25 (Rattus norvegicus [10]): 0.09 mg/kg; IC50 [11]: 15 nM; Activity [6]: 48%; Activity [12]: inactive
27 | 10 | 163 | > 10000 | > 10000 | > 500 | > 500 | CCCCCS(=O)(=O)NC(=O)CCc1cc(OC(C)C)nn1Cc1ccc(C(F)(F)F)cc1Cl | Activity [9]: inactive; IC50 [11]: 21 nM; Activity [12]: inactive
28 | – | 54 | > 10000 | > 10000 | > 500 | > 500 | CCCCCS(=O)(=O)NC(=O)/C=C/c1cc(C2CC2)nn1Cc1ccc(C(F)(F)F)cc1Cl | microsomal CLint at 1 µM [7]: 116 µL/min/mg; Activity (Rattus norvegicus [8]): Dose-dependent effect; ED25 (Rattus norvegicus [8]): 0.42 mg/kg; Activity [9]: inactive; Activity (Rattus norvegicus [10]): Dose-dependent effect; ED25 (Rattus norvegicus [10]): 0.55 mg/kg; IC50 [11]: 12 nM; Activity [12]: inactive
29 | 29 | – | – | – | – | – | CCCCCS(=O)(=O)NC(=O)CCCCc1cc(OCCCC)nn1Cc1ccc(Cl)cc1Cl | –
